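Protocol summary: plate cells (96-well), add compound at 5 concentrations, incubate 48 h, interpolate endpoints linearly. Here, GI50 denotes the concentration required for 50% inhibition of growth. TGI is the concentration that stops growth completely.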
Columns and labels:
Test in all cases: NCI anticancer screen, dose series, 48 h
[1] = system: HCC-2998 colon
[2] = system: SNB-75 CNS
[3] = system: UACC-62 melanoma
[4] = system: MOLT-4 leukemia
[5] = system: A549 NSCLC
[6] = system: TK-10 renal
[7] = system: HOP-92 NSCLC
[8] = system: K-562 leukemia
[9] = system: U251 CNS
[10] = system: RXF 393 renal

For `NC(=O)c1cccc([C@@H]2O[C@H](CO)[C@@H](O)[C@H]2O)c1`, the TGI [1] was > 87.6 µM, the TGI [2] was 14.4 µM and the TGI [3] was 60 µM. The TGI [4] was 8.45 µM, the TGI [5] was > 100 µM and the TGI [6] was 99.1 µM. For the same compound, the TGI [7] was > 69.6 µM, the TGI [8] was 41.3 µM and the TGI [9] was 32.4 µM. For the same compound, the TGI [10] was 34.6 µM.
Compound `Cc1cccc2nc3cccc(C(=O)NCCN(C)C)c3nc12` has a TGI [1] of 2.27 µM, a TGI [2] of 3.04 µM and a TGI [3] of 2.42 µM. For the same compound, the TGI [4] was > 100 µM, the TGI [5] was 15.3 µM and the TGI [6] was 5.84 µM. For the same compound, the TGI [7] was 4.12 µM, the TGI [8] was 10.9 µM and the TGI [9] was 4.61 µM. The TGI [10] was 2.99 µM.
In the case of `Cc1nc(Nc2nc3ccccc3o2)nc(-c2cccc([N+](=O)[O-])c2)c1C(=O)Nc1ccc(F)c(Cl)c1`, the GI50 [1] was 3.26 µM, the TGI [1] was > 100 µM and the GI50 [2] was 2.27 µM. The TGI [2] was 9.62 µM, the GI50 [3] was 2.29 µM and the TGI [3] was > 100 µM. For the same compound, the GI50 [4] was 3.24 µM, the TGI [4] was 16.9 µM and the GI50 [5] was 1.92 µM. For the same compound, the TGI [5] was > 100 µM, the GI50 [6] was 2.07 µM and the TGI [6] was 12.2 µM. For the same compound, the GI50 [7] was 1.39 µM, the TGI [7] was 4.66 µM and the GI50 [8] was 1.84 µM. For the same compound, the TGI [8] was > 100 µM, the GI50 [9] was 2.06 µM and the TGI [9] was 8.27 µM. The GI50 [10] was 2.83 µM and the TGI [10] was > 100 µM.
In the case of `COc1ccc(Nc2cc(C)nc(N3CCN(c4ccnc5cc(Cl)ccc45)CC3)n2)cc1`, the GI50 [1] was 3.24 µM, the TGI [1] was 11.6 µM and the GI50 [2] was 2.47 µM. The TGI [2] was 13.4 µM, the GI50 [3] was 1.71 µM and the TGI [3] was 5.93 µM. The GI50 [4] was 2.9 µM, the TGI [4] was 19.7 µM and the GI50 [5] was 2 µM. The TGI [5] was > 100 µM, the GI50 [6] was 3.64 µM and the TGI [6] was 47.6 µM. For the same compound, the GI50 [7] was 1.04 µM, the TGI [7] was 5.59 µM and the GI50 [8] was 2.34 µM. The TGI [8] was > 100 µM, the GI50 [9] was 3.06 µM and the TGI [9] was 36.6 µM. For the same compound, the GI50 [10] was 2.79 µM and the TGI [10] was 21 µM.
Work on `N#Cc1cc(S(=O)(=O)Nc2nc3ccccc3s2)c(SCc2ccccc2)cc1Cl` yielded a GI50 [1] of 17.7 µM, a TGI [1] of 36.3 µM and a GI50 [2] of 26.2 µM. It also gave a TGI [2] of 63.3 µM, a GI50 [3] of 11.8 µM and a TGI [3] of 29.5 µM. The GI50 [4] was 27.4 µM, the TGI [4] was 74.4 µM and the GI50 [5] was 15.4 µM. The TGI [5] was 35.3 µM, the GI50 [6] was 37.3 µM and the TGI [6] was 97.5 µM. It also gave a GI50 [7] of 24.1 µM, a TGI [7] of 43.3 µM and a GI50 [8] of 38.5 µM. The TGI [8] was > 100 µM, the GI50 [9] was 19.2 µM and the TGI [9] was 38.2 µM. The GI50 [10] was 20.6 µM and the TGI [10] was 45.4 µM.
In the case of `C/C=C(\C)C(=O)N[C@H]1C(O)C[C@]2(C)C3CC[C@@]4(C)C(CC[C@@H]4C(C)N(C)C)C3CCC2C1O` (stereo not given in full), the GI50 [1] was 4.16 µM, the TGI [1] was 9.21 µM and the GI50 [2] was 10.7 µM. For the same compound, the TGI [2] was 26.6 µM, the GI50 [3] was 2.18 µM and the TGI [3] was 4.54 µM. The GI50 [4] was 4.06 µM, the TGI [4] was 17.2 µM and the GI50 [5] was 9.54 µM. It also gave a TGI [5] of 33.6 µM, a GI50 [6] of 18.1 µM and a TGI [6] of 41.5 µM. For the same compound, the GI50 [7] was 6.44 µM, the TGI [7] was 33.4 µM and the GI50 [8] was 1.9 µM. The TGI [8] was 8.34 µM, the GI50 [9] was 4.35 µM and the TGI [9] was 27.6 µM. The GI50 [10] was 7.53 µM and the TGI [10] was 23.2 µM.
In the case of `Cc1ccccc1-n1c(C)nc(-c2ccccc2)cc1=O`, the TGI [1] was > 100 µM, the TGI [2] was > 100 µM and the TGI [3] was > 100 µM. The TGI [4] was > 100 µM, the TGI [5] was > 100 µM and the TGI [6] was > 100 µM. For the same compound, the TGI [7] was > 100 µM, the TGI [8] was > 100 µM and the TGI [9] was > 100 µM. For the same compound, the TGI [10] was > 100 µM.
